Test results: paper PMC3736071, “Probing horseradish peroxidase catalyzed degradation of azo dye from tannery wastewater” (SpringerPlus, 2013)

Tested on: T1, horseradish peroxidase (HRP)
T1 construct: gene PRXC1A
Experiment: dye decolorization at […] nm, Lineweaver-Burk plot
Type: biochemical, Armoracia rusticana
Conditions: free HRP; H2O2 co-substrate (14 μL of 30% w/v per 3 mL, fixed); pH 6.6; 30°C; commercial dye; read-out: apparent Km

With `O=S(=O)(O)c1cccc(N=Nc2ccc(N=Nc3ccc(Nc4ccccc4)c4c(S(=O)(=O)O)cccc34)c3ccccc23)c1` [C.I. Acid Blue 113] the Km was 68 µM.
